From patent publication US4546176A, “7-Carboxymethoxyphenylacetamido-3-cephem derivatives and antibacterial preparations containing the same” (Eisai Co., Ltd., priority 1982, dated 1985) come the findings set out here.

Values after ≈ are worked out from the molar mass of the structure shown. Some results are limits rather than exact numbers.

The test system of one data set is Proteus morganii EP-14. In words: Antibacterial activities (MIC), Proteus morganii EP-14. Format: cell-based. The following applies: Morganella morganii, EP14. From the text:
(§1) (1) Antibacterial activities (MIC):

The next data set deals with Ser. marcescens ES-75. In words: Antibacterial activities (MIC), Ser. marcescens ES-75. Format: cell-based. The conditions noted are these: Serratia marcescens, ES75.
Description: as §1

For the next data set, the system named is Escher. coli NIHJ. In words: Antibacterial activities (MIC), Escher. coli NIHJ. The following applies: Escherichia coli. Format: cell-based.
Description: as §1

Another data set is described as follows: Solubility in water. It is filed as physicochemical. The following applies: in distilled water at 25° C.
Data set [1] can be described thus: Acute toxicity LD50 (mouse, oral). The conditions noted are these: in vivo. From the text:
The acute toxicity values [LD50 (mouse, oral)] of the following compounds were each 4 g/kg or greater;

Another data set has as its system Staph. aureus 209-P. In words: Antibacterial activities (MIC), Staph. aureus 209-P. Format: cell-based. The conditions noted are these: Staphylococcus aureus.
Description: as §1

Data set [2] can be described thus: Urinary excretion rate in mice. Format: in vivo, ICR male mice. The following applies: mouse, sc, 20 mg/kg subcutaneous, urine up to 6 hours, bioassay. As for the experimental part: ICR male mice (body weight: 20-30 g) were used. Each compound was dissolved in an M/15 phosphate buffer (pH 7.0) and administered in an amount of 20 mg/kg by the subcutaneous route. Urine was collected up to 6 hours after the administration. The concentration of the compound was determined by the bioassey technique (the agar-well method) using Pseudomonas aeruginosa as a test microorganism. On the basis of the thus-determined concentration, its excreted amount was obtained. The urinary excretion rate was then calculated from the excreted amount based on the amount administered.

The test system of the next data set is Kleb. pneumoniae EK-6. As to the kind of experiment: Antibacterial activities (MIC), Kleb. pneumoniae EK-6. Format: cell-based. The following applies: Klebsiella pneumoniae, EK6.
Description: as §1

Another data set has as its system Pseud. aeruginosa EP-01. As to the kind of experiment: Antibacterial activities (MIC), Pseud. aeruginosa EP-01. It is filed as cell-based. The following applies: Pseudomonas aeruginosa, EP01.
Description: as §1

The next data set concerns Proteus vulgaris E-18. In words: Antibacterial activities (MIC), Proteus vulgaris E-18 (lactamase producing). Format: cell-based. The conditions noted are these: E18; Proteus vulgaris E-18, lactamase producing bacteria.
Description: as §1
*Lactamase producing bacteria.

As usually defined, the MIC is the lowest concentration that inhibits growth of the organism. The term solubility denotes how much of the substance goes into solution per volume. By LD50 is commonly meant the dose at which mortality reaches 50%. For `Cc1oc2cc(O)c(O)cc2c(=O)c1C(=O)N[C@@H](C(=O)N[C@@H]1C(=O)N2C(C(=O)O)=C(CSc3nnnn3CC(=O)O)CS[C@H]12)c1ccc(OCC(=O)O)cc1` [Example 15, Trisodium 7β-[D-2-(4-carboxymethoxyphenyl)-2-(6,7-dihydroxy-2-methyl-4-oxo-4H-1-benzopyran-3-carboxamido)acetamido]-3-(1-carboxymethyl-5-tetrazolyl)thiomethyl-3-cephem-4-carboxylate], the MIC with Proteus morganii EP-14 was 3.13 µg/mL; with Ser. marcescens ES-75 it was 0.1 µg/mL; against Escher. coli NIHJ, 0.2 µg/mL; against Staph. aureus 209-P it was 100 µg/mL; in the data set with Kleb. pneumoniae EK-6, at most 0.05 µg/mL; against Pseud. aeruginosa EP-01, 0.2 µg/mL. Also, the solubility in the data set “Solubility in water” was at least 300 mg/mL. In data set [1], the LD50 is at least 4000 mg/kg. In addition, the dose excreted at 6 h in data set [2] was determined as 32%.
For the compound `CO[C@@]1(NC(=O)[C@H](NC(=O)c2c(C)oc3cc(OC(C)=O)c(OC(C)=O)cc3c2=O)c2ccc(OCC(=O)O)cc2)C(=O)N2C(C(=O)O)=C(CSc3nnnn3CC(=O)O)CS[C@@H]21` [Example 21], the MIC was 3.13 µg/mL (≈ 3.43 µM) against Proteus morganii EP-14; 0.1 µg/mL (≈ 0.11 µM) with Ser. marcescens ES-75; 0.4 µg/mL (≈ 0.439 µM) against Escher. coli NIHJ; 0.4 µg/mL (≈ 0.439 µM) in the data set with Proteus vulgaris E-18; 100 µg/mL (≈ 110 µM) against Staph. aureus 209-P; at most 0.05 µg/mL against Kleb. pneumoniae EK-6. This compound also had an MIC against Pseud. aeruginosa EP-01 of 0.2 µg/mL (≈ 0.219 µM).
On to `CO[C@@]1(NC(=O)[C@H](NC(=O)c2c(C)oc3c(OC(C)=O)c(OC(C)=O)ccc3c2=O)c2ccc(OCC(=O)O)cc2)C(=O)N2C(C(=O)O)=C(CSc3nnnn3CC(=O)O)CS[C@@H]21` [Example 24, 7β-[D-2-(4-Carboxymethoxyphenyl)-2-(7,8-diacetoxy-2-methyl-4-oxo-4H-1-benzopyran-3-carboxamido)-acetamido]-7α-methoxy-3-(1-carboxymethyl-4-tetrazolyl)thiomethyl-3-cephem-4-carboxylic acid], for which the MIC with Proteus morganii EP-14 is 12.5 µg/mL (≈ 13.7 µM); against Ser. marcescens ES-75, 0.8 µg/mL (≈ 0.877 µM); against Escher. coli NIHJ, 0.8 µg/mL (≈ 0.877 µM); against Proteus vulgaris E-18 it was 3.13 µg/mL (≈ 3.43 µM); against Staph. aureus 209-P, 100 µg/mL (≈ 110 µM); in the data set on Kleb. pneumoniae EK-6, at most 0.05 µg/mL. The same compound displayed an MIC in the data set on Pseud. aeruginosa EP-01 of 0.8 µg/mL (≈ 0.877 µM).
Take `CO[C@@]1(NC(=O)[C@H](NC(=O)c2c(C)oc3c(O)c(O)ccc3c2=O)c2ccc(OCC(=O)O)cc2)C(=O)N2C(C(=O)O)=C(CSc3nnnn3CC(=O)O)CS[C@@H]21` [Example 28, Trisodium 7β-[D-2-(4-carboxymethoxyphenyl)-2-(7,8-dihydroxy-2-methyl-4-oxo-4H-1-benzopyran-3-carboxamido)-acetamido]-7α-methoxy-3-(1-carboxymethyl-5-tetrazolyl)-thiomethyl-3-cephem-4-carboxylate]: the MIC was 6.25 µg/mL in the data set with Proteus morganii EP-14; 0.8 µg/mL in the data set with Ser. marcescens ES-75; 0.8 µg/mL with Escher. coli NIHJ; 3.13 µg/mL with Proteus vulgaris E-18; 100 µg/mL with Staph. aureus 209-P; at most 0.05 µg/mL in the data set on Kleb. pneumoniae EK-6. Besides, the MIC against Pseud. aeruginosa EP-01 was 0.8 µg/mL. This compound returned a dose excreted at 6 h in [2] of 24%.
With `CO[C@@]1(NC(=O)[C@H](NC(=O)c2coc3cc(O)c(O)cc3c2=O)c2ccc(OCC(=O)O)cc2)C(=O)N2C(C(=O)O)=C(COC(C)=O)CS[C@@H]21` [Example 31, 7β-[D-2-(4-Carboxymethoxyphenyl)-2-(6,7-dihydroxy-4-oxo-4H-1-benzopyran-3-carboxamido)acetamido]-7α-methoxy-3-acetoxymethyl-3-cephem-4-carboxylic acid], the MIC in the data set on Proteus morganii EP-14 is 6.25 µg/mL (≈ 8.76 µM); against Ser. marcescens ES-75, 0.4 µg/mL (≈ 0.561 µM); with Escher. coli NIHJ it was 0.8 µg/mL (≈ 1.12 µM); against Proteus vulgaris E-18, 1.56 µg/mL (≈ 2.19 µM); with Staph. aureus 209-P, 50 µg/mL (≈ 70.1 µM); in the data set with Kleb. pneumoniae EK-6, at most 0.05 µg/mL. Further, the MIC against Pseud. aeruginosa EP-01 amounted to 0.4 µg/mL (≈ 0.561 µM).
On to `CO[C@@]1(NC(=O)[C@H](NC(=O)c2c(C)oc3cc(O)c(O)cc3c2=O)c2ccc(OCC(=O)O)cc2)C(=O)N2C(C(=O)O)=C(COC(C)=O)CS[C@@H]21` [Example 33, Disodium 7β-[D-2-(4-carboxymethoxyphenyl)-2-(6,7-dihydroxy-2-methyl-4-oxo-4H-1-benzopyran-3-carboxamido)acetamido]-7α-methoxy-3-acetoxymethyl-3-cephem-4-carboxylate], for which the MIC in the data set with Proteus morganii EP-14 was 12.5 µg/mL; in the data set with Ser. marcescens ES-75, 0.8 µg/mL; in the data set on Escher. coli NIHJ, 0.8 µg/mL; against Proteus vulgaris E-18, 1.56 µg/mL; in the data set on Staph. aureus 209-P it was 50 µg/mL; with Kleb. pneumoniae EK-6, at most 0.05 µg/mL. The compound further gave an MIC in the data set on Pseud. aeruginosa EP-01 of 0.2 µg/mL.
For the compound `Cc1oc2cc(O)c(O)cc2c(=O)c1C(=O)N[C@@H](C(=O)N[C@@H]1C(=O)N2C(C(=O)[O-])=C(C[n+]3ccc(CCS(=O)(=O)O)cc3)CS[C@H]12)c1ccc(OCC(=O)O)cc1` [Example 42, Disodium 7β-[D-2-(4-carboxymethoxyphenyl)-2-(6,7-dihydroxy-2-methyl-4-oxo-4H-1-benzopyran-3-carboxamido)acetamido]-3-[4-(2-sulfoethyl)-pyridinium]methyl-3-cephem-4-carboxylate], the MIC is 3.13 µg/mL in the data set with Proteus morganii EP-14; 0.2 µg/mL in the data set with Ser. marcescens ES-75; 0.2 µg/mL in the data set on Escher. coli NIHJ; 100 µg/mL with Staph. aureus 209-P; at most 0.05 µg/mL in the data set on Kleb. pneumoniae EK-6; 0.2 µg/mL with Pseud. aeruginosa EP-01. Besides, in the data set “Solubility in water”, the solubility was at least 300 mg/mL. Moreover, the LD50 in data set [1] was at least 4000 mg/kg. This compound also showed a dose excreted at 6 h in data set [2] of 46%.
As for `Cc1oc2cc(O)c(O)cc2c(=O)c1C(=O)N[C@@H](C(=O)N[C@@H]1C(=O)N2C(C(=O)[O-])=C(C[n+]3cccc(CC(=O)O)c3)CS[C@H]12)c1ccc(OCC(=O)O)cc1` [Example 43, Disodium 7β-[D-2-(4-carboxymethoxyphenyl)-2-(6,7-dihydroxy-2-methyl-4-oxo-4H-1-benzopyran-3-carboxamido)acetamido]-3-(3-carboxymethylpyridinium)-methyl-3-cephem-4-carboxylate], the MIC was 12.5 µg/mL in the data set with Proteus morganii EP-14; 0.2 µg/mL with Ser. marcescens ES-75; 0.8 µg/mL in the data set with Escher. coli NIHJ; 100 µg/mL against Staph. aureus 209-P; at most 0.05 µg/mL with Kleb. pneumoniae EK-6; 0.1 µg/mL in the data set on Pseud. aeruginosa EP-01. The compound further displayed a solubility in “Solubility in water” of at least 300 mg/mL. The LD50 in data set [1] was at least 4000 mg/kg. In data set [2], the dose excreted at 6 h amounted to 25%.
In the case of `CCn1cc(C(=O)N[C@@H](C(=O)N[C@@H]2C(=O)N3C(C(=O)[O-])=C(C[n+]4ccc(C(N)=O)cc4)CS[C@H]23)c2ccc(OCC(=O)O)cc2)c(=O)c2cc(O)c(O)cc21` [Example 53, Sodium 7β-[D-2-(4-carboxymethoxyphenyl)-2-(6,7-dihydroxy-1-ethyl-1,4-dihydro-4-oxoquinoline-3-carboxamido)acetamido]-3-(4-carbamoylpyridinium)-methyl-3-cephem-4-carboxylate], the MIC was 6.25 µg/mL against Proteus morganii EP-14; 0.8 µg/mL against Ser. marcescens ES-75; 0.4 µg/mL against Escher. coli NIHJ; 50 µg/mL in the data set with Staph. aureus 209-P; at most 0.05 µg/mL in the data set with Kleb. pneumoniae EK-6; 0.2 µg/mL in the data set with Pseud. aeruginosa EP-01. The compound further showed a solubility in the data set “Solubility in water” of at least 300 mg/mL. In data set [1], this compound displayed an LD50 of at least 4000 mg/kg. Besides, the dose excreted at 6 h in data set [2] was 13%.
